From patent EP0589874B1, “USE OF (S)(+)-2-ETHOXY-4-[N-[1-(2-PIPERIDINOPHENYL)-3-METHYL-1-BUTYL]AMINOCARBONYLMETHYL]BENZOIC ACID FOR THE PREPARATION OF A LONGLASTING ANTIDIABETIC MEDICAMENT” (Boehringer Ingelheim Pharma KG, priority 1991, dated 1993)
Read-outs that look alike come from different tables or passages of the source.

Legend:
[1] = Plasma concentrations in volunteers after one tablet of racemate or (S)-enantiomer; assay type: in vivo, Menschen; conditions: human, po; for concentration at 4 h: read-out: Konzentrationen nach 4 Stunden; for concentration at 5 h: read-out: Konzentrationen nach 5 Stunden; for concentration at 6 h: read-out: Konzentrationen nach 6 Stunden; for Cmax: read-out: Maximal-Konzentrationen
Description: (§1) Abbildung 1 gibt hierbei die Plasma-Konzentration von AG-EE 623 ZW und AG-EE 624 ZW nach 1,0 mg i.v. AG-EE 388 ZW und Abbildung 2 die Plasma-Konzentration von AG-EE 623 ZW und AG-EE 624 ZW nach 1,0 mg p.o. (Lösung) AG-EE 388 ZW jeweils an 12 freiwilligen männlichen Probanden wieder. […] Dies wirkt sich z.B. bei Applikation einer Tablette mit 2 mg AG-EE 388 ZW bzw. einer Tablette mit 1 mg AG-EE 623 ZW an 12 bzw. 6 Probanden so aus, daß die Maximal-Konzentrationen 84 ± 25 bzw. 28 ± 18 ng/ml sowie die Konzentrationen nach 4 Stunden 19 ± 8 bzw. 0,7 ± 1,0 ng/ml, nach 5 Stunden 13 ± 6 bzw. 0,3 ± 0,7 ng/ml und nach 6 Stunden 10 ± 6 bzw. 0,3 ± 0,7 ng/ml betragen.

weiblichen Ratten = experiment: Blood-glucose-lowering effect in female rats; assay type: in vivo, Ratte; conditions: for blutzuckersenkende Wirkung: female rats
Description: Die beiden Enantiomeren dieser Verbindung, nämlich (S)(+)-2-Äthoxy-4-[N-[1-(2-piperidino-phenyl)-3-methyl-1-butyl] aminocarbonylmethyl]-benzoesäure (Code-Nr.: AG-EE 623 ZW) und (R)(-)-2-Äthoxy-4-[N-[1-(2-piperidino-phenyl)-3-methyl-1-butyl]aminocarbonylmethyl]-benzoesäure (Code-Nr.: AG-EE 624 ZW), wurden auf ihre blutzuckersenkende Wirkung an weiblichen Ratten geprüft.

Ratten = experiment: Acute oral toxicity in rats, single dose, 14 days observation; assay type: in vivo
[2] = assay type: in vivo, Menschen
Description: Auf Grund dieser Ergebnisse an der Ratte erscheint für den Menschen die ausschließliche Verwendung von AG-EE 623 ZW geboten, wodurch die Dosis im Vergleich zur AG-EE 388 ZW-Dosis um 50 % reduziert werden kann. […] Darüber hinaus wurde jedoch bei den Human-Studien gefunden, daß AG-EE 623 ZW überraschende pharmakokinetische Eigenschaften aufweist, die auf Grund der AG-EE 388 ZW-Daten nicht vorhersehbar waren. AG-EE 623 ZW zeigt somit überraschende therapeutische Vorteile gegenüber dem Racemat AG-EE 388 ZW.

[3] = set-up: species or system Menschen; conditions: in vivo
Description: as §1

[4] = tablet with 2 mg AG-EE 388 ZW, 12 volunteers
[5] = tablet with 1 mg AG-EE 623 ZW, 6 volunteers

Molecule CCOc1cc(CC(=O)NC(CC(C)C)c2ccccc2N2CCCCC2)ccc1C(=O)O (racemic) [AG-EE 388 ZW, 2-Äthoxy-4-[N-[1-(2-piperidino-phenyl)-3-methyl-1-butyl]aminocarbonylmethyl]-benzoesäure, reference compound] has a concentration at 4 h [1, 4] of 19 ± 8 ng/mL, a concentration at 5 h [1, 4] of 13 ± 6 ng/mL and a concentration at 6 h [1, 4] of 10 ± 6 ng/mL. For the same molecule, the Cmax [1, 4] was 84 ± 25 ng/mL.

In the case of CCOc1cc(CC(=O)N[C@@H](CC(C)C)c2ccccc2N2CCCCC2)ccc1C(=O)O [AG-EE 623 ZW, (S)(+)-2-Äthoxy-4-[N-[1-(2-piperidino-phenyl)-3-methyl-1-butyl]aminocarbonylmethyl]-benzoesäure], the “blutzuckersenkende Wirkung” value (weiblichen Ratten) is reported as “wirksame Enantiomere”, the “Dauer der Wirkung (Wirkung hält an)” value (weiblichen Ratten; rat) is reported as > 6 Stunden and the concentration at 4 h [1, 5] is reported as 0.7 ng/mL. It also gave a concentration at 5 h [1, 5] of 0.3 ng/mL, a concentration at 6 h [1, 5] of 0.3 ng/mL and a Cmax [1, 5] of 28 ± 18 ng/mL. For the same molecule, the Toxizität (Ratten; rats, 1000 mg/kg p.o.) was “praktisch untoxisch”, the “verstorbene Tiere” value (Ratten; single 1000 mg/kg p.o., suspension in 1% methylcellulose, 5 male and 5 female rats, 14 days) was “kein Tier” and the “Eintritt der blutzuckersenkenden Wirkung” value ([2]; human) was “rascher ein als nach AG-EE 388 ZW-Gabe”. The Wirkungsdauer ([2]; human) was “relativ lange Wirkungsdauer”, the “Abfall der Spiegel” value ([2]; in vivo) was “fallen rascher gegen null als die AG-EE 388 ZW-Spiegel” and the “Plasmaspiegel in Relation zur erzielten Blutzuckersenkung” value ([2]; in vivo) was “wesentlich niedrigere Plasmaspiegel”. The “Elimination (Plasma-Konzentration)” value [3] was “wesentlich schneller als das unwirksame Enantiomere, AG-EE 624 ZW, eliminiert”.

In the case of CCOc1cc(CC(=O)N[C@H](CC(C)C)c2ccccc2N2CCCCC2)ccc1C(=O)O [AG-EE 624 ZW, (R)(-)-2-Äthoxy-4-[N-[1-(2-piperidino-phenyl)-3-methyl-1-butyl]aminocarbonylmethyl]-benzoesäure], the “blutzuckersenkende Wirkung” value (weiblichen Ratten) is reported as “unwirksame Enantiomere” and the “Plasma-Konzentrationen nach Racemat-Gabe” value [3] is reported as “in unerwartet höheren Maximal- und Dauer-Spiegeln anwesend”.
